According to patent US6083941A, “Inhibition of NMDA receptor activity by pregnenolone sulfate derivatives” (Trustees of Boston University, priority 1998, dated 2000):
Structures can show the parent of a compound that is named as a salt.

What was measured:
[1] = system: NMDA-induced cell death in primary neuronal cultures of rat hippocampal formation; assay: Trypan blue exclusion, NMDA-induced cell death (excitotoxicity) in primary hippocampal cultures; format: cell-based
Source text: Trypan blue exclusion was used to evaluate the ability of derivatives of pregnenolone sulfate to inhibit NMDA-induced cell death in primary neuronal cultures of rat hippocampal formation.
Mixed neuronal and glial cultures of hippocampal tissue were derived from fetal rats on day 18 of embryonic development and were maintained in culture for 16 to 24 days (Brewer, G. J., Brain Res., 494: 65-74 (1989)). Care for the animals used in this study was in accordance with institutional guidelines. Hippocampal tissue from Sprague-Dawley rat pups was collected immediately following removal from dams sacrificed with CO2 on embryonic day 18. Cells were dissociated by trituration in Ca^2 +/Mg^2 + free Hank's basic salt solution supplemented with 4.2 mM bicarbonate, 1 mM sodium pyruvate, 20 mM HEPES, 3 mg/ml BSA, and pelleted by centrifugation (900 rpm, 3 min). The resulting pellet was suspended in DMEM supplemented with 2.4 mg/ml BSA, 26.5 mM sodium bicarbonate, 1 mM sodium pyruvate, 20 mM HEPES, 10% FBS, 100 units/ml penicillin, 100 μg/ml streptomycin, and a modification of Brewers B16 defined components (with […] vitamin B12 and without catalase, glutathione, and superoxide dismutase) (Pike, C. J., et al., Neurosci. 13:1676-87 (1993)) and plated onto poly-L-lysine coated 24 well culture dishes (Nunclon) at a density of 15,000 cells/cm^2 and were maintained in a humidified incubator in 5% CO2 /95% air at 37° C. After 5 days in vitro, nonneuronal cell division was inhibited by exposure to 2×10^-6 M cytosine arabinoside for 48 hrs. Cells were subsequently maintained in medium identical to that used for platting without BSA or FBS.
The number of living neurons was determined by assessing the ability of cells to exclude trypan blue 16 hrs. after the addition of drug solutions to the medium of individual culture wells (Dawson, V. L., et al., Proc. Natl. Acad. Sci. USA, 88:6368-6371 (1991)). Drugs were introduced to cultures in 100 μl of conditioned media, collected from experimental cultures just prior to treatment, to a final volume of 0.5 ml. NMDA was dissolved in DMEM at concentrations of 0-5 mM so that addition of 10 μl yielded final concentrations of 0-100 μM. MK-801, a positive control, was dissolved in DMEM at a concentration of 1 mM so that addition of 5 μl yielded a final concentration of 10 μM. Control cultures were exposed only to an equivalent volume of DMEM, and concentration of DMSO (0.5%). The concentrations of the pregnenolone sulfate derivatives were as follows: 10-100 μM 5β3αS, 100 μM 5β3α hemisuccinate and 200 μM 17β-estradiol hemisuccinate.
After exposure to drugs, the medium was replaced by 0.1 M sodium phosphate buffer/0.4% trypan blue. Cell death was assessed by counting the number of trypan blue positive and negative neurons in five high power fields per culture well with an inverted phase contrast microscope using both bright field and phase settings. Cell death is expressed as the ratio of the number of trypan blue positive to total number of cells counted in each well×100 (percent cell death).

[2] = system: NMDA-induced convulsion and mortality in mice; assay: NMDA-induced convulsion test (200 mg/kg NMDA); format: in vivo
Protocol: Male CD-1 mice (Charles River Laboratories, Wilmington, Mass.) weighing 20-25 g were used for the NMDA-induced convulsion test. Mice were injected intraperitoneally with the test compound dissolved in DMSO or with vehicle. NMDA (200 mg/kg, i.p.) was injected either 2 minutes after intravenous injection of test compound or 20 minutes after intraperitoneal injection of test compound.

[3] = biological target: T1, recombinant NMDA receptors (NR1100 and NR2A subunits) (Rattus norvegicus, UniProt P35439+Q00959); assay: Two electrode voltage-clamp of Xenopus oocytes expressing recombinant NMDA receptors; format: cell-based
T1 construct: expressed in transfected cells; host or cells: Xenopus laevis oocytes injected with in vitro transcribed mRNA
T1 sequence (Q00959 23-1464, other chains not shown): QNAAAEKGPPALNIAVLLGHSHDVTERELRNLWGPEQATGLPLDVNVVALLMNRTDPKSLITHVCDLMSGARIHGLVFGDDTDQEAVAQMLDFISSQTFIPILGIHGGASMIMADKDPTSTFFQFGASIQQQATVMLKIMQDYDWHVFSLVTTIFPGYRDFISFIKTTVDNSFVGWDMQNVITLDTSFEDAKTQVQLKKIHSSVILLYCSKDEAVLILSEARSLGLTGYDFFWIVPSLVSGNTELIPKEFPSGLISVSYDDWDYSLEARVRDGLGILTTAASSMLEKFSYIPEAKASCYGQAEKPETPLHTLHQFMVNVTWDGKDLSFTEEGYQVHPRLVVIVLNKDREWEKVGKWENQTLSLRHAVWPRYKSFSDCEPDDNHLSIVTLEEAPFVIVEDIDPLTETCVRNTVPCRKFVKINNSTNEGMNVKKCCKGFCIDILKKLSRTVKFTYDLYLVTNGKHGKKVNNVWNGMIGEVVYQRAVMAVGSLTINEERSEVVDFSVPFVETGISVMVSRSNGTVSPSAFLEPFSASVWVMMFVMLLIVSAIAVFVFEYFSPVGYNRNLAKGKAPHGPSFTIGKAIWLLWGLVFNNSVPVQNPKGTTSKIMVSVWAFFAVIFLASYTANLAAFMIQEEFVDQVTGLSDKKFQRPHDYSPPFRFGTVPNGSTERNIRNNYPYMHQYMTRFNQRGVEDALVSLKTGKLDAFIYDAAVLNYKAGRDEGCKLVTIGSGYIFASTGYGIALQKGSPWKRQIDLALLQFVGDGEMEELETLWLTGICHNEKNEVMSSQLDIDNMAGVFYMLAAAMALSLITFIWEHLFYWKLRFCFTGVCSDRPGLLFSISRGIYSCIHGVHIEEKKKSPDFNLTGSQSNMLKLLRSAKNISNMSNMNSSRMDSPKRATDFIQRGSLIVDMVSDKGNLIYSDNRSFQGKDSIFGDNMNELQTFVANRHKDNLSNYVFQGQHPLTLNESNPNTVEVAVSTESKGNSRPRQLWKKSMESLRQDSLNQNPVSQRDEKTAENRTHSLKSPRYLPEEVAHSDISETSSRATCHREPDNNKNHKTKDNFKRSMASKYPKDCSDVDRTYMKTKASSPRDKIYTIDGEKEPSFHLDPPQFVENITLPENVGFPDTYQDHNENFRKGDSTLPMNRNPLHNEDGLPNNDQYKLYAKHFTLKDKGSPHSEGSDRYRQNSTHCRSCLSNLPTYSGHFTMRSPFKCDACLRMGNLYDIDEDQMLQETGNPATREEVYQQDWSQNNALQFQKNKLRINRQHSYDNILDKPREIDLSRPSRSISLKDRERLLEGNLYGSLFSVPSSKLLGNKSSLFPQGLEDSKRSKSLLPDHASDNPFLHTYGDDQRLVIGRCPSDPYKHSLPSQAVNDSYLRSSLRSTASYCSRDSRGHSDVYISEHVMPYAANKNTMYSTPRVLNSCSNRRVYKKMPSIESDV
Protocol: RNA preparation. mRNA were prepared through in vitro transcription of NR1100 and NR2A cDNAs using the mMessage mMachine kit (Ambion, Tex.). NR1100 and NR2A clones were kindly provided by Dr. Zukin and Dr. Nakanishie.
Xenopus expression system. Female, oocyte positive Xenopus laevis frogs were purchased from Nasco, Inc. (WI). The frogs were kept on a 12/12 light-dark cycle and maintained on a diet of chopped calf liver every 3 days. Prior to surgery, frogs were anesthetized in a 0.15% Tricaine solution (Sigma, Mo.) for 30-45 minutes. Ovarian sections containing the follicular oocytes were removed through a lateral abdominal incision and were immediately placed in calcium-free ND96 solution (in mM):96 NaCl; 1 MgCl2; 2 KCl; 5 Hepes; 2.5 pyruvate (pH adjusted to 7.4 with NaOH). Following a 2 hr. incubation in 0.2% collagenase type II (Sigma, Mo.) at room temperature, individual defolliculated oocytes were transferred into 60×15 mm glass petri dishes containing ND96 solution (in mM): 96 NaCl; 1 MgCl2; 2 KCl; 1.8 CaCl2; 5 Hepes; 2.5 pyruvate (pH adjusted to 7.4 with NaOH). The isolated oocytes were maintained in an incubator at 18° C. On the following date, batches of 20-40 selected oocytes (Dumont stage V and VI) were injected with 50 nl of prepared RNA solution (0.5 ng of NR1 and 12 ng of NR2A mRNAs per oocyte) using an electronic microinjector (Drummond, Pa.). The injected oocytes were used for electrophysiological experiments following 4-10 day incubation at 18° C.
Electrical recording and drug application. The ion current recordings were obtained in two electrodes voltage-clamp mode using an Axoclamp-2A amplifier (Axon Instruments, Inc., CA). The microelectrodes were fabricated with a programmed puller (Sutter Instrument Co., CA) from glass capillaries (Dagan, Minn.) and filled with 3M KCl solution. The resistance of filled microelectrodes was in the range of 2.5-3.5 M.OMEGA.. The oocytes were clamped at a holding potential of -70 mV. The membrane current was filtered at 500 Hz and sampled at 100 Hz frequency. The drugs were applied using a gravity driven external perfusion system. The data acquisition and external perfusion control were done using SuperScopeII software package (GW Instruments, MA). All experiments were performed at room temperature of 22-24° C.
The degree of modulation of the amino acid response by steroids, the percent change, was defined at (I'/I-1)×100%, where I and I' are respectively the agonist-induced currents in the absence and presence of steroid. Throughout, results are expressed as mean±SEM; statistical comparison of groups was carried out using Student's t test.

[4] = mice, i.p., high dose, time limit 30 min

## CC(=O)[C@H]1CC[C@H]2[C@@H]3CC[C@@H]4C[C@H](OC(=O)CCC(=O)O)CC[C@]4(C)[C@H]3CC[C@]12C [5β3αHS, 3α-hydroxy-5β-pregnan-20-one hemisuccinate]
[1]; 100 μM 5β3α hemisuccinate
  inhibition of the cell death induced by chronic NMDA: 50%
  inhibition of the cell death produced by short term exposure to NMDA: 46%
[2]; mice, i.p., FIG. 7
  mortality induced by 200 mg/kg of NMDA: dose-dependently inhibited mortality
  tonic seizures induced by 200 mg/kg of NMDA: dose-dependently inhibited tonic seizures
[2]; [4]
  mortality induced by NMDA at the high dose: completely block the mortality
  tonic seizures induced by NMDA at the high dose: completely block the seizures

## CC(=O)[C@H]1CC[C@H]2[C@@H]3CC[C@@H]4C[C@H](OS(=O)(=O)O)CC[C@]4(C)[C@H]3CC[C@]12C [5β3αS, 3α-hydroxy-5β-pregnan-20-one sulfate]
[1]; 10-100 μM 5β3αS, FIG. 5
  protection against chronic NMDA-induced cell death: ineffective against chronic NMDA-induced cell death
  protection against short term NMDA excitotoxicity: protects against short term NMDA excitotoxicity
[1]; steroid present during the exposure only
  block of cell death due to NMDA: completely blocked the cell death
[1]; steroid present only after the exposure
  block of cell death due to NMDA: considerably less effective
[2]; mice, i.v. administration, FIG. 8
  seizures and mortality induced by NMDA: effective in blocking seizures and mortality
[2]; printed:
  latency to onset of seizures: increases the latency to onset of seizures
[2]; printed: rats following i.v. injection of 200 mg/kg NMDA
  mortality: decreases mortality
[3]
  effect on NMDA responses of NR1100/NR2A injected oocytes: had an inhibitory effect

## CC(=O)C1CCC2C3CC=C4CC(OS(=O)(=O)O)CCC4(C)C3CCC12C (stereo not drawn) [PS, pregnenolone sulfate]
[3]; 100 μM steroid, read-out: potentiation of a near maximal NMDA response (200 μM)
  activation at 100 µM: 292 ± 34%
